Measurements: patent US20250360130A1, “METHODS OF TREATING INDOLENT SYSTEMIC MASTOCYTOSIS” (Telios Pharma Inc., priority 2024, published 2025)

Experiments:
[1] = test system: basophils; assay: Basophil Activation Test (BAT), CD63, whole blood; type: cell-based, human; settings: 24 hours versus 2 hours drug exposure
Description: (§1) The BAT was conducted as set forth in Santos (2021) Allergy, 76:2420-2432. Blood from six healthy donors was drawn and Compound 128 was added at various concentrations (10 μM, 3.16 μM, 1 μM, 0.3 μM, 0.1 μM, 0.03 μM, or 0 μM). Blood samples were gently rocked at room temperature for 2 hours, 24 hours, or 48 hours. The BAT assay using the Flow Cast Basophil Activation Kit (Buhlmann Diagnostics; Catalog #B-CCR-STCON) was then conducted following manufacturer instructions by (1) stimulating the blood with anti-FcεR stimulation control in stimulation buffer with IL-3 and staining cells for CCR3 and CD63 for 15 minutes at 37° C., (2) lysing red blood cells and fixing cells with Lysing Reagent at room temperature for 10 minutes, (3) washing cells with Wash Buffer, and (4) acquiring data on a flow cytometer. Activated basophils were defined as CCR3+, low side scatter and CD63+. Percent of activated basophils was calculated as number of activated basophils over the total number of basophils. A four-parameter logistic regression was applied to determine the EC50 and EC90.

[2] = test system: mast cells; assay: Return of degranulation after Compound 128 exposure and washout (FIG. 18); type: cell-based, human; settings: after Compound 128 exposure, flow cytometry
Text: FIGS. 18A-D show return of degranulation after Compound 128 exposure.

[3] = test system: MRGPRX2; assay: MRGPRX2-mediated cytokine production in ISM-like mast cells; type: cell-based, human
Description: Human mast cells were differentiated from bone marrow CD34+ cells from four healthy donors and were cultured in the presence of SCF (100 ng/mL) to mimic mast cells in ISM and treated with Compound 128 for two hours prior to stimulation. Mas-related G protein-coupled receptor (MRGPRX2) agonists, Compound 48/80 (C48/80; a product of N-methyl-p-methoxyphenethylamine with formaldehyde) or Substance P (SP) were used to activate the MRGPRX2 pathway. For pBTK test, cells were stimulated with C48/80 (10 μg/mL) for ten minutes at 37° C. and cells were stained. The median fluorescence intensity of phosphorylated BTK was measured. The fold change over unstimulated control for pBTK was calculated. For cytokine test, cells were stimulated with C48/80 (10 μg/mL) or SP (30 μM) for four hours at 37° C. Supernatant was collected and cytokine levels were measured using the BD Cytometric Bead Array (CBA) human soluble protein master buffer kit (Becton Dickinson) and BD CBA human soluble protein flex sets for IL-8, MCP-1, GM-CSF and IL-13 (Becton Dickinson). Cytokine levels were measured and normalized to percent of control, with 0% representing the level of the unstimulated control.

[4] = target: BTK (Homo sapiens, UniProt Q06187); assay: BTK phosphorylation in mast cells (FIG. 19); type: cell-based; parameters: endogenous in cells; settings: correlating with calcium signaling, CD63, CD203c, histamine release
[5] = test system: mast cells derived from ISM patients; assay: Degranulation of mast cells grown from CD34+ blood cells from ISM patients (FIG. 22); type: cell-based, human; settings: antigen stimulation in absence of SCF
[6] = test system: basophils; assay: Inhibition of basophil activation (BAT, CD63) in ISM patients; type: in vivo, human
Description: as §1, with “EC90. […]” for “EC90.”
The BAT assay measuring CD63 used the Flow Cast Basophil Activation Kit method and percent activated basophils were calculated as described in Example 1. Percent inhibition of CD63 activation was calculated as (100−(Sample condition−Unstimulated DMSO control)/(Stimulated DMSO control−Unstimulated DMSO control)×100).

[7] = test system: mast cell from an ISM patient; assay: IgE-mediated calcium influx in ISM patient mast cells (FIG. 17); type: cell-based, human; settings: presence of SCF, prior to antigen stimulation
Description: Mast cell from an ISM patient was treated with Compound 128 at 50 mg, 75 mg, 100 mg, and 150 mg BID dose prior to antigen (Ag) stimulation. ISM 3-2 mast cell donor MC 1061-004 C1D8 D39. Experiments performed in the presence of SCF. […] Percent of Control (POC) based on Area-under-Curve above baseline (1st value).

Sequence of BTK (Q06187 whole entry): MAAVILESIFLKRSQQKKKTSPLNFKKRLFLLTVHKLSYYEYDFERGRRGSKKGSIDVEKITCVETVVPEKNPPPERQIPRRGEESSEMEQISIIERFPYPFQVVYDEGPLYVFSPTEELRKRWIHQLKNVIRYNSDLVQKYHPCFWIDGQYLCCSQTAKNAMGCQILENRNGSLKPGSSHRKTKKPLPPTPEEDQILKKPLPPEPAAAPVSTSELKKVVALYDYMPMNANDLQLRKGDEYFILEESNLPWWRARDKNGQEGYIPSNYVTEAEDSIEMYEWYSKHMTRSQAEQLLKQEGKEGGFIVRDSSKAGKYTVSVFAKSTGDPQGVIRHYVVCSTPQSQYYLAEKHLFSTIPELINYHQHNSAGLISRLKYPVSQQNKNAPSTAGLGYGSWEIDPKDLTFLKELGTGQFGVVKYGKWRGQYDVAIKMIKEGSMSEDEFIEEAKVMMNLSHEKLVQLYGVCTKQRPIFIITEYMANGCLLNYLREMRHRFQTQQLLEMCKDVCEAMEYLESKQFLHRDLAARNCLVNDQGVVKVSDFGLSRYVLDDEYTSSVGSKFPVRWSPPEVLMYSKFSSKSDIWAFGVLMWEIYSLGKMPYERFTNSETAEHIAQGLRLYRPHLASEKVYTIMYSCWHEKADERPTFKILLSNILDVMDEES

C=CC(=O)N1CCC(F)(CNc2ncnc(N)c2-c2ccc(Oc3ccccc3)cc2)CC1 [Compound 128, 1-(4-(((6-amino-5-(4-phenoxyphenyl)pyrimidin-4-yl)amino)methyl)-4-fluoropiperidin-1-yl)prop-2-en-1-one]
potency increase after 24 hours drug exposure [1]: approximately 4 fold
time to restoration of degranulation after inhibition [2]: ≤ 24 h
MRGPRX2-mediated cytokine production ([3]; 0.1 μM): partially inhibited
MRGPRX2-mediated cytokine production ([3]; 0.5 and 1 μM): inhibition of cytokine production was increased
C48/80-mediated cytokine production ([3]; Compound 48/80 agonist): partial inhibition
SP-mediated cytokine production ([3]; Substance P (SP) agonist): fully inhibited
inhibition of BTK phosphorylation in mast cells [4]: high potency
degranulation of ISM patient-derived mast cells [5]: inhibited the degranulation
inhibition of basophil activation ([6]; 100 mg or 150 mg BID): effective in inhibiting basophil activation
percent inhibition of CD63 activation of basophils, dose dependence ([6]; 50, 75, 100 or 150 mg BID versus placebo): greater inhibition of basophil activation is achieved in ISM patients with greater dosing
IgE-mediated calcium influx [7]: potently inhibits
